This passage reports melting point and Ki results from patent publication US7094773B2, “LTA4 hydrolase inhibitors” (Institut National de la Santa et de la rescherche Medicale …, priority 1999, dated 2006).

Counter-ions that a name gives are not always drawn.

Data set [1] concerns the target T1, human recombinant LTA4 hydrolase (Homo sapiens, UniProt P09960).
T1 construct: made in house; host or cells: E. coli JM109
T1 sequence (P09960 1-611): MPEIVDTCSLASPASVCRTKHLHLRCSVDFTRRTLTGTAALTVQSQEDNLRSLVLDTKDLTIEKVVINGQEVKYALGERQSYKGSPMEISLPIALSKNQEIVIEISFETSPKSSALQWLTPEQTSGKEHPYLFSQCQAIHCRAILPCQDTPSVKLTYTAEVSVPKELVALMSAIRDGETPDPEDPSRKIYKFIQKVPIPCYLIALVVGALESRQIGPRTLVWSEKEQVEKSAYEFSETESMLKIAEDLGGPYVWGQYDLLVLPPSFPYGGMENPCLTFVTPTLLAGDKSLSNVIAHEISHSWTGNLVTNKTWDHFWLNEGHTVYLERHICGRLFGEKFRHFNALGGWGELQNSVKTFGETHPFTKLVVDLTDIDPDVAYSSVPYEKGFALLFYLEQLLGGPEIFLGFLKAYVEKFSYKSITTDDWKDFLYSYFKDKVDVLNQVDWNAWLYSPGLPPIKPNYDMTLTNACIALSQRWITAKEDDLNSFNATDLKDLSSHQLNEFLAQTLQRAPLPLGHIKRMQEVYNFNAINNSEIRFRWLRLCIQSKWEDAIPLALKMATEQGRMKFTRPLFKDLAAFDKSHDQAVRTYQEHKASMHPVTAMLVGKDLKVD
In words: Inhibition of the aminopeptidase activity of recombinant LTA4 hydrolase (fluorimetric, Ala-AMC substrate). The class given is biochemical. Conditions: in vitro. The procedure:
The compounds were tested using human recombinant LTA4 hydrolase (Minami et al., FEBS Letters, 1988, 229: 279). The LTA4 hydrolase expressed by E. coli JM109 is purified mainly according to Minami et al., (J. Biol. Chem., 1987, 262: 13873).
The inhibition of the aminopeptidase activity of the enzyme is measured by means of a fluorimetric method in 96-well microplates. The recombinant enzyme (0.5 μg in 50 μl of 50 mM Tris-HCl pH 7.4) is preincubated for 10 minutes at 37° C. in the presence of inhibitor and of dithiothreitol (DTT, 10^−5 M). The substrate alanyl-amido-methylcoumarin (Ala-AMC, 25 μM-Tris HCl 50 mM, pH 7.4) is added and the incubation is continued for 15 minutes at 37° C. The release of AMC is measured by fluorimetry.

A word on the melting point: it is the temperature, or range, at which the solid turns liquid. Molecule `Br.NC(CCCOc1ccc(Cc2ccccc2)cc1)C(=O)O` (racemic) displayed a melting point of 199 °C.
In turn, `Br.NC(CCCOc1ccc(Oc2ccccc2)cc1)C(=O)O` (racemic) registered a melting point of 162 °C.
`Br.NC(CCCCCOc1ccc(Cc2ccccc2)cc1)C(=O)O` (racemic): the melting point was 100 °C.
The same measure, in the same setting: for `Br.NC(CCCCOc1ccc(-c2ccccc2)cc1)C(=O)O` (racemic) the value was 185 °C; for `Br.CCCCCCOc1ccc(OCCCCC(N)C(=O)O)cc1` (racemic), 135 °C; for `Br.NC(CCCCCCOc1ccc(Cc2ccccc2)cc1)C(=O)O` (racemic), 120 °C.
The same measure, in the same setting: under `Br.NC(CCCCOc1ccc(Oc2ccccc2)cc1)C(=O)O` (racemic) stands 130 °C.
As usually defined, the Ki is a measure of affinity in units of concentration, obtained from inhibition or displacement. As for `NC(CCCCOc1ccc(Cc2ccccc2)cc1)C(=O)O` (racemic) [compound 51, 2-(RS)-amino-6-(4-benzylphenoxy)hexanoic acid hydrobromide], in data set [1], the Ki amounted to 0.032 µM.
